Measured values: patent publication US10100058B2, “Fused heterocyclic compounds as CaM kinase inhibitors” (Gilead Sciences, Inc., priority 2016, dated 2018)

These compounds were tested against recombinant CaMKIIδ (Homo sapiens (Human), UniProt Q13557) (assay: CaMKIIδ biochemical assay (HTRF)). Settings: 10 pM CaMKIIδ, 110 nM calmodulin, 12 μM ATP, 1 hour; read-out: CAMKIID-HTRF-384V2 (IC50 - nM).
Protocol: CaMKIIδ Biochemical Assay
The biochemical activity of recombinant CaMKIIδ was measured by monitoring the phosphorylation of a target peptide using Homogenous Time Resolved Fluorescence (HTRF) technology from CisBio Bioassays.

Structure (SMILES) | IC50 [nM]
COC1CN(c2cc(C(=O)N3CC4CCC(C3)NC4)cc(-c3cnn4ccc(-c5cccs5)nc34)n2)C1 (stereo not drawn) [Example 325, (-3,6-diazabicyclo[3.2.2]nonan-3-yl)(2-(3-methoxyazetidin-1-yl)-6-(5-(thiophen-2-yl)pyrazolo[1,5-a]pyrimidin-3-yl)pyridin-4-yl)methanone] | 2.19
COC1CN(c2cc(C(=O)N3[C@H]4CCNC[C@@H]3CC4)cc(-c3cnn4ccc(-c5cccs5)nc34)n2)C1 [Example 326, ((1S,6R)-3,9-diazabicyclo[4.2.1]nonan-9-yl)(2-(3-methoxyazetidin-1-yl)-6-(5-(thiophen-2-yl)pyrazolo[1,5-a]pyrimidin-3-yl)pyridin-4-yl)methanone] | 3.29
COC1CN(c2cc(C(=O)N3CC[C@H](N)C3)cc(-c3cnn4ccc(-c5ccccc5)nc34)n2)C1 [Example 328, (S)-(3-aminopyrrolidin-1-yl)(2-(3-methoxyazetidin-1-yl)-6-(5-phenylpyrazolo[1,5-a]pyrimidin-3-yl)pyridin-4-yl)methanone] | 91.9
COC1CN(c2cc(C(=O)N3CC4CCC(C3)NC4)cc(-c3cnn4ccc(-c5ccccc5)nc34)n2)C1 (stereo not drawn) [Example 329, (-3,6-diazabicyclo[3.2.2]nonan-3-yl)(2-(3-methoxyazetidin-1-yl)-6-(5-phenylpyrazolo[1,5-a]pyrimidin-3-yl)pyridin-4-yl)methanone] | 14.1
CCN(CC)[C@@H](C)CNC(=O)c1cc(-c2cnn(C)c2)nc(-c2cnn3ccc(-c4cccs4)nc23)c1 [Example 331, (S)—N-(2-(diethylamino)propyl)-2-(1-methyl-1H-pyrazol-4-yl)-6-(5-(thiophen-2-yl)pyrazolo[1,5-a]pyrimidin-3-yl)isonicotinamide] | 0.08
CCN(CC)[C@@H](C)CNC(=O)c1cc(-c2c(C)n[nH]c2C)nc(-c2cnn3ccc(-c4cccs4)nc23)c1 [Example 332, (S)—N-(2-(diethylamino)propyl)-2-(3,5-dimethyl-1H-pyrazol-4-yl)-6-(5-(thiophen-2-yl)pyrazolo[1,5-a]pyrimidin-3-yl)isonicotinamide] | 0.24
CCN(CC)[C@@H](C)CNC(=O)c1cc(-c2c[nH]nc2C)nc(-c2cnn3ccc(-c4cccs4)nc23)c1 [Example 333, (S)—N-(2-(diethylamino)propyl)-2-(3-methyl-1H-pyrazol-4-yl)-6-(5-(thiophen-2-yl)pyrazolo[1,5-a]pyrimidin-3-yl)isonicotinamide] | 0.22
CCN(CC)[C@@H](C)CNC(=O)c1cc(-c2c[nH]nc2C(F)(F)F)nc(-c2cnn3ccc(-c4cccs4)nc23)c1 [Example 334, (S)—N-(2-(diethylamino)propyl)-2-(5-(thiophen-2-yl)pyrazolo[1,5-a]pyrimidin-3-yl)-6-(3-(trifluoromethyl)-1H-pyrazol-4-yl)isonicotinamide] | 0.19
CCN(CC)[C@@H](C)CNC(=O)c1cc(-c2cnoc2)nc(-c2cnn3ccc(-c4cccs4)nc23)c1 [Example 335, (S)—N-(2-(diethylamino)propyl)-2-(isoxazol-4-yl)-6-(5-(thiophen-2-yl)pyrazolo[1,5-a]pyrimidin-3-yl)isonicotinamide] | 0.29
CCN(CC)[C@@H](C)CNC(=O)c1cc(-c2cc[nH]n2)nc(-c2cnn3ccc(-c4cccs4)nc23)c1 [Example 336, (S)—N-(2-(diethylamino)propyl)-2-(1H-pyrazol-3-yl)-6-(5-(thiophen-2-yl)pyrazolo[1,5-a]pyrimidin-3-yl)isonicotinamide] | 0.1
CCN(CC)[C@@H](C)CNC(=O)c1cc(-c2cnn3ccc(-c4cccs4)nc23)nc(-c2cnn3ccc(-c4cccs4)nc23)c1 [Example 337, (S)—N-(2-(diethylamino)propyl)-2,6-bis(5-(thiophen-2-yl)pyrazolo[1,5-a]pyrimidin-3-yl)isonicotinamide] | 0.33
CCN(CC)[C@@H](C)CNC(=O)c1cc(-c2nccs2)nc(-c2cnn3ccc(-c4cccs4)nc23)c1 [Example 338, (S)—N-(2-(diethylamino)propyl)-2-(thiazol-2-yl)-6-(5-(thiophen-2-yl)pyrazolo[1,5-a]pyrimidin-3-yl)isonicotinamide] | 0.86
CCN(CC)[C@@H](C)CNC(=O)c1cc(-c2ncco2)nc(-c2cnn3ccc(-c4cccs4)nc23)c1 [Example 339, (S)—N-(2-(diethylamino)propyl)-2-(oxazol-2-yl)-6-(5-(thiophen-2-yl)pyrazolo[1,5-a]pyrimidin-3-yl)isonicotinamide] | 0.35
CCN(CC)[C@@H](C)CNC(=O)c1cc(-c2cn[nH]c2)nc(-c2cnn3ccc(-c4cccs4)nc23)c1 [Example 340, (S)—N-(2-(diethylamino)propyl)-2-(1H-pyrazol-4-yl)-6-(5-(thiophen-2-yl)pyrazolo[1,5-a]pyrimidin-3-yl)isonicotinamide] | 0.05
CCN(CC)[C@@H](C)CNC(=O)c1cc(-c2cnn(CCC#N)c2)nc(-c2cnn3ccc(-c4cccs4)nc23)c1 [Example 341, (S)-2-(1-(2-cyanoethyl)-1H-pyrazol-4-yl)-N-(2-(diethylamino)propyl)-6-(5-(thiophen-2-yl)pyrazolo[1,5-a]pyrimidin-3-yl)isonicotinamide] | 0.15
CCN(CC)[C@@H](C)CNC(=O)c1cc(-c2cnn(C3COC3)c2)nc(-c2cnn3ccc(-c4cccs4)nc23)c1 [Example 342, (S)—N-(2-(diethylamino)propyl)-2-(1-(oxetan-3-yl)-1H-pyrazol-4-yl)-6-(5-(thiophen-2-yl)pyrazolo[1,5-a]pyrimidin-3-yl)isonicotinamide] | 0.13
CCN(CC)[C@@H](C)CNC(=O)c1cc(OC[C@H]2CCCO2)nc(-c2cnn3ccc(-c4cccs4)nc23)c1 [Example 343, N—((S)-2-(diethylamino)propyl)-2-(((R)-tetrahydrofuran-2-yl)methoxy)-6-(5-(thiophen-2-yl)pyrazolo[1,5-a]pyrimidin-3-yl)isonicotinamide] | 0.26
CCN(CC)[C@@H](C)CNC(=O)c1cc(OC[C@H](C)OC)nc(-c2cnn3ccc(-c4cccs4)nc23)c1 [Example 344, N—((S)-2-(diethylamino)propyl)-2-((S)-2-methoxypropoxy)-6-(5-(thiophen-2-yl)pyrazolo[1,5-a]pyrimidin-3-yl)isonicotinamide] | 0.56
CCN(CC)[C@@H](C)CNC(=O)c1cc(O[C@H]2CCOC2)nc(-c2cnn3ccc(-c4cccs4)nc23)c1 [Example 345, N—((S)-2-(diethylamino)propyl)-2-(((S)-tetrahydrofuran-3-yl)oxy)-6-(5-(thiophen-2-yl)pyrazolo[1,5-a]pyrimidin-3-yl)isonicotinamide] | 1.22
CCN(CC)[C@@H](C)CNC(=O)c1cc(O[C@@H]2CCOC2)nc(-c2cnn3ccc(-c4cccs4)nc23)c1 [Example 346, N—((S)-2-(diethylamino)propyl)-2-(((R)-tetrahydrofuran-3-yl)oxy)-6-(5-(thiophen-2-yl)pyrazolo[1,5-a]pyrimidin-3-yl)isonicotinamide] | 1.07
CCN(CC)[C@@H](C)CNC(=O)c1cc(OCC2(C)COC2)nc(-c2cnn3ccc(-c4cccs4)nc23)c1 [Example 349, (S)—N-(2-(diethylamino)propyl)-2-((3-methyloxetan-3-yl)methoxy)-6-(5-(thiophen-2-yl)pyrazolo[1,5-a]pyrimidin-3-yl)isonicotinamide] | 0.56
